Biological target: GST tagged truncated human mutant G2019S LRRK2 (Homo sapiens (Human), UniProt Q5S007, G2019S)
Assay: LRRK2 Km ATP LanthaScreen Assay
Assay type: biochemical
Conditions: 134 μM ATP (Km ATP), LRRKtide substrate, negative log of mean IC50 (molar)
How it was run: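 Truncated GST-tagged G2019S LRRK2 (1.25 nM enzyme solution) was preincubated with compound for 15 min at rt, then reacted for 90 min with fluorescein-LRRKtide and 134 μM ATP (Km) in Tris pH 8.5/MgCl2 buffer. After an EDTA stop, TR-FRET used a Tb anti-pERM antibody (520/495 nm ratio). IC50 came from a 4-parameter fit and is reported as pIC50, mean of several runs.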

GST tagged truncated human mutant G2019S LRRK2, sequence (Q5S007 970-2527 G2019S): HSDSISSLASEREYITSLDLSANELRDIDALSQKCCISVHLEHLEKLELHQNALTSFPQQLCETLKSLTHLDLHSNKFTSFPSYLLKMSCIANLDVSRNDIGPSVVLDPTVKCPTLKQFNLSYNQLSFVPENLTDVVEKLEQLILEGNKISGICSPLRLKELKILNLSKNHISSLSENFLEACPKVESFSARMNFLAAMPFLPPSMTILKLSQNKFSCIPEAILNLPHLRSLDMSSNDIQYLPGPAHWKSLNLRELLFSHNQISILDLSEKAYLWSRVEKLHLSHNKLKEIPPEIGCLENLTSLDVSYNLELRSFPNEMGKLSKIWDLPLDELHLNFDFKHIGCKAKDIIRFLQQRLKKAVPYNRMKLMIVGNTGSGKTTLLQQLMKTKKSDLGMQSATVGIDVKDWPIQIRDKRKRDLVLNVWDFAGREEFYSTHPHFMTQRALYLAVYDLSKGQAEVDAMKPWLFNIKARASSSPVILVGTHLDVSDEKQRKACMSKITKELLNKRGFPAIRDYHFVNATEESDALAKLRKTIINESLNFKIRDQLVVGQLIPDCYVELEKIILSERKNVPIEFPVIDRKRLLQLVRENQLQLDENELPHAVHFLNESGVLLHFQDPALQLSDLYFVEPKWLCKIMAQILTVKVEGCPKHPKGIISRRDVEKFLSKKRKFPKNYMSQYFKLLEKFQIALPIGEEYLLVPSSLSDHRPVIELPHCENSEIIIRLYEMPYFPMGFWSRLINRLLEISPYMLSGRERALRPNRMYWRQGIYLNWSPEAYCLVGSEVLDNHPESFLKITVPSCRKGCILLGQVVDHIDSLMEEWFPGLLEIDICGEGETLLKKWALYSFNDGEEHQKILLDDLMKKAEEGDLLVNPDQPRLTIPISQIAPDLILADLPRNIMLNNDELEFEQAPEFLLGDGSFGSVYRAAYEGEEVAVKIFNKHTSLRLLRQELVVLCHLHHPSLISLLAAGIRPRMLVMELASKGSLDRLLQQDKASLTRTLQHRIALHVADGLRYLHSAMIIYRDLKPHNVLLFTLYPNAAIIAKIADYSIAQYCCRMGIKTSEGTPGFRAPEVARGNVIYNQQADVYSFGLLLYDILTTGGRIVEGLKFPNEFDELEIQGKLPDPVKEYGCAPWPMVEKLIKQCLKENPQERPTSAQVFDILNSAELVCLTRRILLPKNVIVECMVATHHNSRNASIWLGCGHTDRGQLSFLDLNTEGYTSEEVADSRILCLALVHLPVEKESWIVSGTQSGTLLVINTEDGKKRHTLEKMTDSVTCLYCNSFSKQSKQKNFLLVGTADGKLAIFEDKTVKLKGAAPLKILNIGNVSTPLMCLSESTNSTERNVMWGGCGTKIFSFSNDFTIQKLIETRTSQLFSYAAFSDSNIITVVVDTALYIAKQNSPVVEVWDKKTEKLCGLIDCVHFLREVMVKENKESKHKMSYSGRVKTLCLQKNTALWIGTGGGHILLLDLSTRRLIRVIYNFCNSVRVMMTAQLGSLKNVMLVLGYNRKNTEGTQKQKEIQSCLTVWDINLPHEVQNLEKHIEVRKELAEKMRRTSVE

Row | Structure (SMILES) | LRRK2 pIC50 | IC50 (read-out: LRRK2 pIC50 (converted)) [nM]
1 | CC1COc2c(-c3cccc(C(=O)Nc4cnn(CC5CCC5)c4)n3)cnn2C1 (stereo not drawn) [Example 9-7, N-[1-(cyclobutylmethyl)-1H-pyrazol-4-yl]-6-(6-methyl-6,7-dihydro-5H-pyrazolo[5,1-b][1,3]oxazin-3-yl)pyridine-2-carboxamide] | 6.87 | –
2 | O=C(Nc1cnn(CC2CCC2)c1)c1cccc(-c2cnn(Cc3ccccn3)c2)n1 [Example 9-8, N-[1-(cyclobutylmethyl)-1H-pyrazol-4-yl]-6-[1-(pyridin-2-ylmethyl)-1H-pyrazol-4-yl]pyridine-2-carboxamide] | 6.54 | –
3 | Cn1cnc(-c2nc(C(=O)Nc3cnn(C4CCC4)c3)cs2)c1 [Example 9-9, N-(1-cyclobutyl-1H-pyrazol-4-yl)-2-(1-methyl-1H-imidazol-4-yl)-1,3-thiazole-4-carboxamide] | 8.04 | –
4 | O=C(Nc1cnn(CC2CCC2)c1)c1cccc(-c2cnn3c2COCC3)n1 [Example 9-10, N-[1-(cyclobutylmethyl)-1H-pyrazol-4-yl]-6-(6,7-dihydro-4H-pyrazolo[5,1-c][1,4]oxazin-3-yl)pyridine-2-carboxamide] | 7.76 | –
5 | O=C(Nc1cnn(CC2CCC2)c1)c1cccc(-c2ccc(F)cc2F)n1 [Example 9-11, N-[1-(cyclobutylmethyl)-1H-pyrazol-4-yl]-6-(2,4-difluorophenyl) pyridine-2-carboxamide] | 5.63 | –
6 | COCCn1cc(-c2cccc(C(=O)Nc3cnn(CC4CCC4)c3)n2)cn1 [Example 9-12, N-[1-(cyclobutylmethyl)-1H-pyrazol-4-yl]-6-[1-(2-methoxyethyl)-1H-pyrazol-4-yl]pyridine-2-carboxamide] | 6.95 | –
7 | O=C(Nc1cnn(CC2CCC2)c1)c1cccc(-c2cnn3c2CCCC3)n1 [Example 9-13, N-[1-(cyclobutylmethyl)-1H-pyrazol-4-yl]-6-(4,5,6,7-tetrahydropyrazolo [1,5-a]pyridin-3-yl)pyridine-2-carboxamide] | 7.68 | –
8 | O=C(Nc1cnn(C2CCC2)c1)c1csc(-c2cc[nH]n2)n1 [Example 9-14, N-(1-cyclobutyl-1H-pyrazol-4-yl)-2-(1H-pyrazol-3-yl)-1,3-thiazole-4-carboxamide] | 7.41 | –
9 | O=C(Nc1cnn(CC2CCC2)c1)c1cccc(-c2cnsc2)n1 [Example 9-15, N-[1-(cyclobutylmethyl)-1H-pyrazol-4-yl]-6-isothiazol-4-ylpyridine-2-carboxamide] | 6.66 | –
10 | O=C(Nc1cnn(CC2CCC2)c1)c1cccc(-c2ccncc2)n1 [Example 9-16, N-[1-(cyclobutylmethyl)-1H-pyrazol-4-yl]-2,4′-bipyridine-6-carboxamide] | 5.04 | –
11 | O=C(Nc1cnn(C2CCC2)c1)c1csc(-c2cnn(C(F)F)c2)n1 [Example 9-17, N-(1-cyclobutyl-1H-pyrazol-4-yl)-2-[1-(difluoromethyl)-1H-pyrazol-4-yl]-1,3-thiazole-4-carboxamide] | 7.50 | –
12 | Cc1[nH]ncc1-c1nc(C(=O)Nc2cnn(C3CCC3)c2)cs1 [Example 9-18, N-(1-cyclobutyl-1H-pyrazol-4-yl)-2-(5-methyl-1H-pyrazol-4-yl)-1,3-thiazole-4-carboxamide] | 7.59 | –
13 | O=C(Nc1cnn(CC2CCC2)c1)c1cccc(-c2ccnnc2)n1 [Example 9-19, N-[1-(cyclobutylmethyl)-1H-pyrazol-4-yl]-6-pyridazin-4-ylpyridine-2-carboxamide] | 5.22 | –
14 | Cn1nccc1-c1cccc(C(=O)Nc2cnn(CC3CCC3)c2)n1 [Example 9-20, N-[1-(cyclobutylmethyl)-1H-pyrazol-4-yl]-6-(1-methyl-1H-pyrazol-5-yl)pyridine-2-carboxamide] | 5.07 | –
15 | O=C(Nc1cnn(C2CCC2)c1)c1csc(-c2cnn3c2OCCC3)n1 [Example 9-21, N-(1-cyclobutyl-1H-pyrazol-4-yl)-2-(6,7-dihydro-5H-pyrazolo[5,1-b][1,3]oxazin-3-yl)-1,3-thiazole-4-carboxamide] | 8.08 | –
16 | Cn1ccc(-c2cccc(C(=O)Nc3cnn(CC4CCC4)c3)n2)n1 [Example 9-22, N-[1-(cyclobutylmethyl)-1H-pyrazol-4-yl]-6-(1-methyl-1H-pyrazol-3-yl)pyridine-2-carboxamide] | 6.53 | –
17 | Cn1cc(-c2nccc(C(=O)Nc3cnn(C4CCC4)c3)n2)cn1 [Example 9-23, N-(1-cyclobutyl-1H-pyrazol-4-yl)-2-(1-methyl-1H-pyrazol-4-yl)pyrimidine-4-carboxamide] | 7.47 | –
18 | O=C(Nc1cnn(CC2CCC2)c1)c1cccc(-c2cccnc2F)n1 [Example 9-24, N-[1-(cyclobutylmethyl)-1H-pyrazol-4-yl]-2′-fluoro-2,3′-bipyridine-6-carboxamide] | 7.16 | –

Row | Structure (SMILES) | LRRK2 pIC50 | IC50 (read-out: LRRK2 pIC50 (converted)) [nM]
19 | Cn1cc(-c2cccc(C(=O)Nc3cnn(CC4CCC4)c3)n2)cn1 [Example 9-25, N-[1-(cyclobutylmethyl)-1H-pyrazol-4-yl]-6-(1-methyl-1H-pyrazol-4-yl)pyridine-2-carboxamide] | 7.38 | –
20 | Cc1n[nH]c(C)c1-c1cccc(C(=O)Nc2cnn(CC3CCC3)c2)n1 [Example 9-26, N-[1-(cyclobutylmethyl)-1H-pyrazol-4-yl]-6-(3,5-dimethyl-1H-pyrazol-4-yl)pyridine-2-carboxamide] | 6.09 | –
21 | O=C(Nc1cnn(C2CCC2)c1)c1csc(-c2cnn3c2CCCC3)n1 [Example 9-27, N-(1-cyclobutyl-1H-pyrazol-4-yl)-2-(4,5,6,7-tetrahydropyrazolo [1,5-a]pyridin-3-yl)-1,3-thiazole-4-carboxamide] | 8.25 | –
22 | Cn1cc(-c2nc(C(=O)Nc3cnn(C4CCC4)c3)cs2)cn1 [Example 9-28, N-(1-cyclobutyl-1H-pyrazol-4-yl)-2-(1-methyl-1H-pyrazol-4-yl)-1,3-thiazole-4-carboxamide] | 7.85 | –
23 | N#Cc1cccc(-c2cccc(C(=O)Nc3cnn(CC4CCC4)c3)n2)c1 [Example 9-29, 6-(3-cyanophenyl)-N-[1-(cyclobutylmethyl)-1H-pyrazol-4-yl]pyridine-2-carboxamide] | 5.51 | –
24 | COc1ccncc1-c1cccc(C(=O)Nc2cnn(CC3CCC3)c2)n1 [Example 9-30, N-[1-(cyclobutylmethyl)-1H-pyrazol-4-yl]-4′-methoxy-2,3′-bipyridine-6-carboxamide] | 6.76 | –
25 | O=C(Nc1cnn(CC2CCC2)c1)c1cccc(-c2csc3ccccc23)n1 [Example 9-31, 6-(1-benzothiophen-3-yl)-N-[1-(cyclobutylmethyl)-1H-pyrazol-4-yl]pyridine-2-carboxamide] | 5.18 | –
26 | Cn1ccc(-c2cccc(C(=O)Nc3cnn(CC4CCC4)c3)n2)c1 [Example 9-32, N-[1-(cyclobutylmethyl)-1H-pyrazol-4-yl]-6-(1-methyl-1H-pyrrol-3-yl)pyridine-2-carboxamide] | 6.59 | –
27 | O=C(Nc1cnn(CC2CCC2)c1)c1cccc(-c2cnn(C(F)F)c2)n1 [Example 9-33, N-[1-(cyclobutylmethyl)-1H-pyrazol-4-yl]-6-[1-(difluoromethyl)-1H-pyrazol-4-yl]pyridine-2-carboxamide] | 6.75 | –
28 | O=C(Nc1cnn(CC2CCC2)c1)c1cccc(-c2cccnc2)n1 [Example 9-34, N-[1-(cyclobutylmethyl)-1H-pyrazol-4-yl]-2,3′-bipyridine-6-carboxamide] | 6.90 | –
29 | O=C(Nc1cnn(CC2CCC2)c1)c1cccc(-c2cnn(CCN3CCOCC3)c2)n1 [Example 9-35, N-[1-(cyclobutylmethyl)-1H-pyrazol-4-yl]-6-[1-(2-morpholin-4-ylethyl)-1H-pyrazol-4-yl]pyridine-2-carboxamide] | 5.32 | –
30 | O=C(Nc1cnn(CC2CCC2)c1)c1cccc(-c2cnn(Cc3cccnc3)c2)n1 [Example 9-36, N-[1-(cyclobutylmethyl)-1H-pyrazol-4-yl]-6-[1-(pyridin-3-ylmethyl)-1H-pyrazol-4-yl]pyridine-2-carboxamide] | 6.90 | –
31 | Cn1cc(-c2cccc(C(=O)Nc3cnn(C4CCC4)c3)c2F)cn1 [Example 9-38, N-(1-cyclobutyl-1H-pyrazol-4-yl)-2-fluoro-3-(1-methyl-1H-pyrazol-4-yl)benzamide] | 7.10 | –
32 | O=C(Nc1cnn(C2CCC2)c1)c1csc(-c2cccnc2)n1 [Example 9-39, N-(1-cyclobutyl-1H-pyrazol-4-yl)-2-(pyridin-3-yl)thiazole-4-carboxamide] | 7.06 | –
33 | O=C(Nc1cnn(C2CC2)c1)c1csc(-c2ccn[nH]2)n1 [Example 9-40, N-(1-cyclopropyl-1H-pyrazol-4-yl)-2-(1H-pyrazol-5-yl)thiazole-4-carboxamide] | 7.06 | –
34 | N#CC1(c2cccc(C(=O)Nc3cnn(CC4CCC4)c3)n2)CC1 [Example 10-1, 6-(1-Cyanocyclopropyl)-N-(1-(cyclobutylmethyl)-1H-pyrazol-4-yl)picolinamide] | 6.90 | –
35 | O=C(Nc1cnn(C2CCC2)c1)c1csc(-n2cccn2)n1 [Example 11-1, N-(1-Cyclobutyl-1H-pyrazol-4-yl)-2-(1H-pyrazol-1-yl)thiazole-4-carboxamide] | – | 100
36 | O=C(Nc1cnn(C2CCC2)c1)c1csc(-n2ccnc2)n1 [Example 11-2, N-(1-cyclobutyl-1H-pyrazol-4-yl)-2-(1H-imidazol-1-yl)thiazole-4-carboxamide] | 6.61 | –
